Nine compounds from patent US20210330611A1, “THERAPY FOR NEUROLOGICAL DISEASES/DISORDERS” (priority 2020, published 2021) can be followed below.

Data set [1] deals with fibrin-induced microglia activation. The data set can be described thus: Image-based assay of fibrin-induced microglia activation (HTS and dose response). Format: cell-based, rat. The settings on record: for IC50 / inhibition at 10 µM: Rattus norvegicus, Microglia; for inhibition at 10 µM: read-out: Fibrin % inhibition.
The subject of data set [2] is LPS-induced microglia activation. The data set can be described thus: Image-based assay of LPS-induced microglia activation (HTS and dose response). The settings on record: Rattus norvegicus, Microglia; for inhibition at 10 µM: read-out: LPS % inhibition. Format: cell-based, rat.
Data set [3] deals with fibrin- and LPS-induced microglia activation. The data set can be described thus: cells. Format: cell-based, rat. As to conditions: for inhibition at 10 µM: Rattus norvegicus; for Activity: Table 7, fib = fibrin, LPS, tox = toxicity.
In data set [4] the test system is primary rat microglia. As to conditions: rat.
The subject of data set [5] is primary rat microglia. As to conditions: rat. The source holds these as a separate data set.
A short description of data set [6]: in vitro. The settings on record: rat, Cell Toxicity IC50 (uM) [cFib assay].
Data set [7] can be described thus: in vitro. The settings on record: rat.
The mark [8] stands for this setting: read-out: Fibrin IC50 (uM) (Suppl. Table 7).
Where [9] appears, read: read-out: LPS IC50 (uM) (Suppl. Table 7).
Where [10] appears, read: Microglia, read-out: Cherry-picked Hit (Suppl. Table 7).
The mark [11] stands for this setting: 48 h, Table 1, dose response 0.001-20 μM, triplicates, primary rat microglia, 48 h, read-out: Fibrin IC50.
The mark [12] stands for this setting: dose response, fibrin-induced microglia activation, read-out: Fibrin IC50.
[13] abbreviates: fibrin-induced microglia activation, dose response, read-out: Fibrin IC50 (uM) (Suppl. Table 7).
Where [14] appears, read: primary microglia HTS, fibrin stimulation, increased cell size (>800 μm^2) as marker of activation.
The mark [15] stands for this setting: 48 h, Table 1, dose response 0.001-20 μM, triplicates, primary rat microglia, 48 h, read-out: LPS IC50.
Setting [16] is: 48 h, primary microglia HTS, LPS stimulation, increased cell size (>800 μm^2) as marker of activation.
Setting [17] is: LPS-induced microglia activation, dose response, read-out: LPS IC50 (uM) (Suppl. Table 7).
[18] abbreviates: dose response, LPS-induced microglia activation, read-out: LPS IC50.
Setting [19] is: HTS of 1907 compounds, quadrant by fibrin and LPS inhibition.
Where [20] appears, read: Microglia, HTS hit classification, read-out: Hit.
[21] abbreviates: hit classification in microglia HTS, read-out: Cherry-picked Hit (Suppl. Table 7).
Setting [22] is: quadrant by fibrin and LPS inhibition in HTS of 1907 compounds.

Structures can show the parent of a compound that is named as a salt. Where two headings read alike, the source gives them in different places. A value given as a limit tells only on which side of the number the result lay.
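Wherever Fibrin % cell toxicity is given: share of dead cells sized under 150 µm2 at 10 µM in fibrin-stimulated microglia HTS.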

With `OCc1cc(C(O)CNCCCCCCOCCCCc2ccccc2)ccc1O` (stereo not shown) [Salmeterol, reference compound], in data set [1], the “Fibrin Selectivity” value was determined as 10. Moreover, the “Fibrin Selectivity (LOG10)” value in data set [1] worked out at 1.02. Further, the IC50 is 1 µM in data set [1] (48 h, read-out: Fibrin IC50); 1 µM in data set [1] (read-out: Fibrin IC50 (uM)); 1 µM in data set [1] (setting [8]); 14 µM in data set [2] (48 h, read-out: LPS IC50); 14 µM in data set [2] (read-out: LPS IC50 (uM)); 14 µM in data set [2] (setting [9]). For the same compound, the IC50 in “in vitro [6]” and in the data set “in vitro [7]” was over 20 µM throughout. The inhibition at 10 µM is 56% in data set [1]; 29% in data set [2] (48 h); over 50% in data set [3] (setting [10]); over 50% in data set [3] (Microglia, read-out: Hit). Besides, in data set [3], the “Quadrant (FIG. 5b)” value is recorded as “Q3”. Besides, the “Fibrin % cell toxicity” value with primary rat microglia [4] is 1%. In the data set on primary rat microglia [5], the “LPS % cell toxicity” value is 1%.
Consider `COc1cc([C@@H]2c3cc4c(cc3[C@@H](O[C@@H]3O[C@@H]5CO[C@@H](c6cccs6)O[C@H]5[C@H](O)[C@H]3O)[C@H]3COC(=O)[C@H]23)OCO4)cc(OC)c1O` [Teniposide, reference compound], for which the IC50 in data set [1] (setting [11]) worked out at 2 µM; in data set [1] (Table 7, read-out: fib_IC50), 0.821 µM; in data set [1] (setting [12]), 2 µM; in data set [1] (setting [13]), 2 µM; in data set [2] (setting [15]) it was 1 µM; in data set [2] (setting [17]), 1 µM. In addition, the IC50 came out at 0.24 µM in data set [2] (Table 7, read-out: LPS_IC50); 1 µM in data set [2] (setting [18]); 20 µM in the data set “in vitro [6]” (cFib assay); 4 µM in the data set “in vitro [7]”. In addition, the inhibition at 10 µM in data set [1] (setting [14]) was 91%; in data set [2] (setting [16]), 100%; in data set [3] (setting [20]), over 50%; in data set [3] (setting [21]) it was over 50%. The “Quadrant (FIG. 5b)” value in data set [3] (setting [19]) is “Q2”; in data set [3] (Table 1, screen at 10 μM), “Q2”; in data set [3] (Table 2, screen at 10 μM), “Q2”; in data set [3] (setting [22]), “Q2”. Also, in data set [3], the Activity result is “fib/LPS”. In addition, the “Fibrin % cell toxicity” value with primary rat microglia [4] was 2%. Moreover, the “LPS % cell toxicity” value in the data set on primary rat microglia [5] amounted to 18%.
In the case of `CCN(CC)CCNc1ccc(CO)c2sc3ccccc3c(=O)c12` [Hycanthone, reference compound], the IC50 in data set [1] (setting [11]) came to 1 µM; in data set [1] (Table 7, read-out: fib_IC50) it was 0.619 µM; in data set [1] (setting [12]) it was 1 µM; in data set [1] (setting [13]) it was 1 µM; in data set [2] (setting [15]), 1 µM; in data set [2] (setting [17]), 1 µM. Further, the IC50 in data set [2] (Table 7, read-out: LPS_IC50) was 0.354 µM; in data set [2] (setting [18]), 1 µM; in “in vitro [6]” it was over 20 µM; in the data set “in vitro [7]”, 11 µM. Further, the inhibition at 10 µM in data set [1] (setting [14]) is 103%; in data set [2] (setting [16]), 71%; in data set [3] (setting [20]) it was over 50%; in data set [3] (setting [21]) it was over 50%. For the same compound, the “Quadrant (FIG. 5b)” value in data set [3] (setting [19]) is listed as “Q2”; in data set [3] (Table 1, screen at 10 μM), “Q2”; in data set [3] (setting [22]), “Q2”. Besides, the Activity result in data set [3] was “fib/LPS”. Besides, the “Fibrin % cell toxicity” value with primary rat microglia [4] worked out at 2%. Moreover, the “LPS % cell toxicity” value in the data set on primary rat microglia [5] was found to be 2%.
`CC(CN(C)C)CN1c2ccccc2CCc2ccccc21` (stereo not shown) [Trimipramine maleate, reference compound]: the IC50 in data set [1] (setting [11]) worked out at 7 µM; in data set [1] (setting [12]), 7 µM; in data set [1] (setting [13]), 7 µM; in data set [2] (setting [15]), 5 µM; in data set [2] (setting [17]), 5 µM; in data set [2] (setting [18]) it was 5 µM. Moreover, the IC50 in “in vitro [6]” (cFib assay) is over 20 µM; in “in vitro [7]” it was 12 µM. For the same compound, the inhibition at 10 µM in data set [1] (setting [14]) is 52%; in data set [2] (setting [16]) it was 92%; in data set [3] (setting [20]) it was over 50%; in data set [3] (setting [21]), over 50%. The “Quadrant (FIG. 5b)” value is “Q2” in data set [3] (setting [19]); “Q2” in data set [3] (Table 1, screen at 10 μM); “Q2” in data set [3] (setting [22]). Besides, the “Fibrin % cell toxicity” value with primary rat microglia [4] amounted to 1%. Moreover, the “LPS % cell toxicity” value with primary rat microglia [5] was 5%.
Consider `O=c1[nH]c2ccccc2n1C1CCN(CCCC(c2ccc(F)cc2)c2ccc(F)cc2)CC1` [Pimozide, reference compound], for which the IC50 in data set [1] (setting [11]) is over 20 µM; in data set [1] (setting [12]), over 20 µM; in data set [1] (setting [13]), over 20 µM; in data set [2] (setting [15]), 18 µM; in data set [2] (setting [17]) it was 18 µM; in data set [2] (setting [18]), 18 µM. Also, the IC50 in “in vitro [6]” (cFib assay) and in “in vitro [7]” was over 20 µM throughout. The inhibition at 10 µM is 70% in data set [1] (setting [14]), 45% in data set [2] (setting [16]), over 50% in data set [3] (setting [20]) and over 50% in data set [3] (setting [21]). The “Quadrant (FIG. 5b)” value in data set [3] (setting [19]) is given as “Q3”; in data set [3] (Table 1, screen at 10 μM), “Q3”; in data set [3] (setting [22]), “Q3”. Further, in the data set with primary rat microglia [4], the “Fibrin % cell toxicity” value is recorded as 2%. For the same compound, the “LPS % cell toxicity” value with primary rat microglia [5] came to 0%.
In the case of `Cc1cccc(C(=O)O)c1O` [Hydroxytoluic acid, reference compound], the IC50 in data set [1] (setting [11]) was 20 µM; in data set [1] (setting [12]), 20 µM; in data set [1] (setting [13]), 20 µM; in data set [2] (setting [15]), over 20 µM; in data set [2] (setting [17]), over 20 µM; in data set [2] (setting [18]), over 20 µM. Moreover, the IC50 in the data set “in vitro [6]” and in “in vitro [7]” was over 20 µM in each case. Further, the inhibition at 10 µM in data set [1] (setting [14]) was 69%; in data set [2] (setting [16]), 33%; in data set [3] (setting [20]) it was over 50%; in data set [3] (setting [21]) it was over 50%. Moreover, the “Quadrant (FIG. 5b)” value in data set [3] (setting [19]) is reported as “Q3”; in data set [3] (Table 1, screen at 10 μM) it was “Q3”; in data set [3] (setting [22]), “Q3”. The “Fibrin % cell toxicity” value with primary rat microglia [4] is listed as 1%. Also, the “LPS % cell toxicity” value with primary rat microglia [5] is on record as 0%.
Consider `Clc1ccc2c(c1)C(N1CCNCC1)=Nc1ccccc1O2` [Amoxapine, reference compound], for which the inhibition at 10 µM is 58% in data set [1]; 43% in data set [2] (48 h); over 50% in data set [3] (setting [10]); over 50% in data set [3] (Microglia, read-out: Hit). In addition, the “Quadrant (FIG. 5b)” value in data set [3] is on record as “Q3”. The “Fibrin % cell toxicity” value with primary rat microglia [4] was determined as 0%. Moreover, the “LPS % cell toxicity” value in the data set with primary rat microglia [5] came to 1%. The IC50 in “in vitro [6]” and in “in vitro [7]” was over 20 µM in each case.
For `CCCSc1ccc2nc(NC(=O)OC)[nH]c2c1` [Albendazole, reference compound], the “Fibrin Selectivity” value in data set [1] was 2. Also, the “Fibrin Selectivity (LOG10)” value in data set [1] came out at 0.22. In addition, the IC50 in data set [1] (48 h, read-out: Fibrin IC50) was 4 µM; in data set [1] (read-out: Fibrin IC50 (uM)), 4 µM; in data set [1] (setting [8]), 4 µM; in data set [2] (48 h, read-out: LPS IC50) it was 6 µM; in data set [2] (read-out: LPS IC50 (uM)), 6 µM; in data set [2] (setting [9]), 6 µM. The IC50 in “in vitro [6]” and in “in vitro [7]” was over 20 µM in each case. The inhibition at 10 µM in data set [1] is 64%; in data set [2] (48 h), 16%; in data set [3] (setting [10]) it was over 50%; in data set [3] (Microglia, read-out: Hit), over 50%. Moreover, the “Quadrant (FIG. 5b)” value in data set [3] is “Q3”. Besides, the “Fibrin % cell toxicity” value in the data set with primary rat microglia [4] is reported as 1%. Moreover, the “LPS % cell toxicity” value with primary rat microglia [5] is listed as 1%.
As to `COC(=O)Nc1nc2ccc(C(=O)c3ccccc3)cc2[nH]1` [Mebendazole, reference compound], the “Fibrin Selectivity” value in data set [1] came out at 31. Besides, the “Fibrin Selectivity (LOG10)” value in data set [1] was 1.49. The IC50 in data set [1] (setting [11]) came to 0.2 µM; in data set [1] (Table 3, read-out: Fibrin IC50 (uM) (Suppl. Table 7)), 0.2 µM; in data set [1] (setting [12]), 0.2 µM; in data set [1] (setting [13]) it was 0.2 µM; in data set [2] (setting [15]), 6 µM; in data set [2] (setting [17]), 6 µM. Besides, the IC50 in data set [2] (Table 3, read-out: LPS IC50 (uM) (Suppl. Table 7)) was 6 µM; in data set [2] (setting [18]), 6 µM; in “in vitro [6]” it was over 20 µM; in “in vitro [7]” it was over 20 µM. In addition, the inhibition at 10 µM in data set [1] (setting [14]) was 57%; in data set [2] (setting [16]), 72%; in data set [3] (Microglia, Table 3, read-out: Cherry-picked Hit (Suppl. Table 7)), over 50%; in data set [3] (setting [20]), over 50%. For the same compound, the “Quadrant (FIG. 5b)” value in data set [3] (setting [19]) was “Q2”; in data set [3] (Table 1, screen at 10 μM), “Q2”; in data set [3] (Table 3, screen at 10 μM), “Q2”; in data set [3] (setting [22]) it was “Q2”. In addition, the “Fibrin % cell toxicity” value with primary rat microglia [4] is on record as 1%. Besides, the “LPS % cell toxicity” value in the data set with primary rat microglia [5] is 2%.
